Data published in ChEMBL document CHEMBL5385925, “Phytochemical Characterization and TRPA1/TRPM8 Modulation Profile of the Cannabigerol-Rich Cannabis sativa L. Chemotype IV” (J Nat Prod, 2024).
Active and inactive are the calls of the source. No cut-off for these calls is given here.

Legend:
Type in all cases: cell-based
[1] = target: Transient receptor potential cation channel subfamily A member 1 (Rattus norvegicus) (UniProt Q6RI86); test: Agonist activity at rat TRPA1 transfected in HEK293 cells assessed as increase in intracellular Ca2+ concentration by measuring efficacy by Fluo4-AM dye based assay relative to AITC
Sequence of Transient receptor potential cation channel subfamily A member 1 (Rattus norvegicus) (Q6RI86 whole entry): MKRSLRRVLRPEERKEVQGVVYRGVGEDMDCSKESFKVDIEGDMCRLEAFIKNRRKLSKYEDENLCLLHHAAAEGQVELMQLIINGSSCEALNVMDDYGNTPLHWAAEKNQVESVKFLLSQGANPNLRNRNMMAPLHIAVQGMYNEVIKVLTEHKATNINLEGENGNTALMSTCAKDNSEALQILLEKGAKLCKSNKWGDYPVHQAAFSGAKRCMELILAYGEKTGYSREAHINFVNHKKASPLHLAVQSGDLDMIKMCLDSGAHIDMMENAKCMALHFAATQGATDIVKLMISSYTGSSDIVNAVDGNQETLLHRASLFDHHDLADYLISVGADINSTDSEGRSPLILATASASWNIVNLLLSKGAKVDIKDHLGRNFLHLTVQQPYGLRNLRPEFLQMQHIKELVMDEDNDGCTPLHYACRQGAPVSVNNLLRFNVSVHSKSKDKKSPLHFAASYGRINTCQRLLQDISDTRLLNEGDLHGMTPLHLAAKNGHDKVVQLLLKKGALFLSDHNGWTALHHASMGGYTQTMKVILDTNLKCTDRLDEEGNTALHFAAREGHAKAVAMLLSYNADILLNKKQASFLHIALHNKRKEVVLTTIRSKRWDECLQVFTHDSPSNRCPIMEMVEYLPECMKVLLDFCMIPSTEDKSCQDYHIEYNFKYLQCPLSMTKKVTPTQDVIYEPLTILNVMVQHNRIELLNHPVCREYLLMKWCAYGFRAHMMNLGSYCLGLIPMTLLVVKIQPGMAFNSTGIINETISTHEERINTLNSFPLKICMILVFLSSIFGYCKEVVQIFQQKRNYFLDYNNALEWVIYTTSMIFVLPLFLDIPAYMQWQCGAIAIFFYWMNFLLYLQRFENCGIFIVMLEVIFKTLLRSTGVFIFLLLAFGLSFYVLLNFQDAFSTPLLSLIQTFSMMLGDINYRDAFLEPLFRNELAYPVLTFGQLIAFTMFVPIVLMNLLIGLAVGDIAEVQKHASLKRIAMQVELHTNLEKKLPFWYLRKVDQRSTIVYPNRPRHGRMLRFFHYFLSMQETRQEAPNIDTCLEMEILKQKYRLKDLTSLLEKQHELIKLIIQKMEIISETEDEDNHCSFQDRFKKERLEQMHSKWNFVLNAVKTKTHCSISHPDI

[2] = target: T1, Transient receptor potential cation channel subfamily A member 1 (Rattus norvegicus, UniProt Q6RI86); test: Agonist activity at rat TRPA1 transfected in HEK293 cells assessed as increase in intracellular Ca2+ concentration by Fluo4-AM dye based assay
T1 sequence (Q6RI86 whole entry): as above

[3] = target: T1, Transient receptor potential cation channel subfamily A member 1; test: Antagonist activity at rat TRPA1 transfected in HEK293 cells assessed as desensitization by measuring inhibition of AITC induced increase in intracellular Ca2+ concentration preincubated for 5 mins followed by AITC stimulation by Fluo4-AM dye based assay
[4] = target: Transient receptor potential cation channel subfamily M member 8 (Rattus norvegicus, UniProt Q8R455); test: Antagonist activity at rat TRPM8 transfected in HEK293 cells assessed as inhibition of icilin induced increase in intracellular Ca2+ concentration preincubated for 5 mins followed by icilin stimulation by Fluo4-AM dye based assay
Sequence of Transient receptor potential cation channel subfamily M member 8 (Q8R455 whole entry): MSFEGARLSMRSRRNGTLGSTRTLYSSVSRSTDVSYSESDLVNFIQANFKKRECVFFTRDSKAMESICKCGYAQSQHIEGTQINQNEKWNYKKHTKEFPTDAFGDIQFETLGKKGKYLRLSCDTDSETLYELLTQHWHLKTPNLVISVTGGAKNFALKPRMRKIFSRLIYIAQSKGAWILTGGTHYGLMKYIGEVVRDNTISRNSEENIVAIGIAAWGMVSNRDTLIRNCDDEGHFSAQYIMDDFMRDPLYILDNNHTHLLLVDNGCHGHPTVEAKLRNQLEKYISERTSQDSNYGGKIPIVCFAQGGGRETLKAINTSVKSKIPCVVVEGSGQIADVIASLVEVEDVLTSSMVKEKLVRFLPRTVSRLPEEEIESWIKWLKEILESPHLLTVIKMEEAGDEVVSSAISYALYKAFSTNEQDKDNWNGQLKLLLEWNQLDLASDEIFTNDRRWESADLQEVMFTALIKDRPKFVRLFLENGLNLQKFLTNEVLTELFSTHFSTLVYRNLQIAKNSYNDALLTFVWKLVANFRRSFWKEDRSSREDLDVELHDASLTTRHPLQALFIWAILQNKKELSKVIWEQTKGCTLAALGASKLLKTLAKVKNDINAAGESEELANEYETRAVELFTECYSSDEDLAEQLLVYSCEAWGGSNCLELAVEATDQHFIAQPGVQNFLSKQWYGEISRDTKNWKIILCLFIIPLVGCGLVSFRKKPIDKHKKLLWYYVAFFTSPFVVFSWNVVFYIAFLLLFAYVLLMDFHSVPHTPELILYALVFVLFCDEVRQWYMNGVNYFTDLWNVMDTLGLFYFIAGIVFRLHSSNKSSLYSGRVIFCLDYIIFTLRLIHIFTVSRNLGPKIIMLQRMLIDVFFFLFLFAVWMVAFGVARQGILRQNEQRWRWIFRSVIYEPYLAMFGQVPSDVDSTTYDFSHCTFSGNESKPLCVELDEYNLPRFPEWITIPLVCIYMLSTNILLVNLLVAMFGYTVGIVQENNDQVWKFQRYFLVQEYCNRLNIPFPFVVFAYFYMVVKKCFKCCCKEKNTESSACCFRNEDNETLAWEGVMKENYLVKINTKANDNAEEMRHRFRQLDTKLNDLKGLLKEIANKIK

[5] = target: Transient receptor potential cation channel subfamily V member 1 (Homo sapiens) (UniProt Q8NER1); test: Modulation of human TRPV1 transfected in HEK293 cells
Sequence of Transient receptor potential cation channel subfamily V member 1 (Homo sapiens) (Q8NER1 whole entry): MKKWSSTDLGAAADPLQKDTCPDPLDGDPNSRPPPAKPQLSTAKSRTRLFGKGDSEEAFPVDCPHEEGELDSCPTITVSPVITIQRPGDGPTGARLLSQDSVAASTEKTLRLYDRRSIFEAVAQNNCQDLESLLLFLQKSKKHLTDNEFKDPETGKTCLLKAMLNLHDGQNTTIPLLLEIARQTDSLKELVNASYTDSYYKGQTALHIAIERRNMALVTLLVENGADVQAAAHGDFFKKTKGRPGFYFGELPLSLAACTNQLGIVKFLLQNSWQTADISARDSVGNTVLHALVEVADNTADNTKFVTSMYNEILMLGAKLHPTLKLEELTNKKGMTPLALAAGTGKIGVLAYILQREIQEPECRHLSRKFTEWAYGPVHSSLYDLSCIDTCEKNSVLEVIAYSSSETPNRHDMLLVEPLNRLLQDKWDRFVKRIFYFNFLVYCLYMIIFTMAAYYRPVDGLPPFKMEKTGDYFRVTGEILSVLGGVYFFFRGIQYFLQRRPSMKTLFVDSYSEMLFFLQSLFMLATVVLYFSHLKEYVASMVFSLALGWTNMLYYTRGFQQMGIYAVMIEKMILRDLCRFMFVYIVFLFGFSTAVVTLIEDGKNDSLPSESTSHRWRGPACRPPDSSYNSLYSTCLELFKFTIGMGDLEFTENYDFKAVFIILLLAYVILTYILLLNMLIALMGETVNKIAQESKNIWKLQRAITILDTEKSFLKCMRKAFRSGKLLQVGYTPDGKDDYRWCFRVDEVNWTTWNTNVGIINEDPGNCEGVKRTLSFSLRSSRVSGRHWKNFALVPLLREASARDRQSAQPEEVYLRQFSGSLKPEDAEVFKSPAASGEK

SMILES | Efficacy ([1]; filed as agonist) | EC50 [2] | IC50 [3] | IC50 [4] | Activity [5] | Efficacy [1]
CCCCCc1cc(O)c(C/C=C(\C)CCC=C(C)C)c(O)c1C(=O)O [CANNABIGEROLIC ACID] | 183% | 8.4 µM | 7.14 µM | 1.31 µM | – | –
C=C(C)[C@H](CCC(C)=O)[C@@H]1c2c(cc(CCCCC)c(C(=O)O)c2O)O[C@@H]1O | 85.7% | 8.8 µM | 19.2 µM | 8 µM | – | –
CCCCCC1=CC(=O)C(C/C=C(\C)CCC=C(C)C)=C(O)C1=O | 134% | 7.8 µM | 8.4 µM | 3 µM | inactive | –
CCCCCc1cc(O)c(C/C=C(\C)CCC(=O)O)c(O)c1C(=O)O | 40.4% | 28.3 µM | > 50 µM | 29.5 µM | – | –
CCCCCc1cc(O)c(C/C=C(\C)CCC(O)C(C)(C)O)c(O)c1C(=O)O (stereo not drawn) | 84.1% | 10.3 µM | 25.1 µM | 17.3 µM | – | –
CCCCCc1cc(O)c(C/C=C(\C)CCC=C(C)C)c(O)c1 | 99.9% | – | – | – | – | –
C=C(C)C(O)CC/C(C)=C/Cc1c(O)cc(CCCCC)c(C(=O)O)c1O (stereo not drawn) | 96.1% | 12.1 µM | 37.3 µM | 10.4 µM | – | –
C=C(C)[C@H](O)CC/C(C)=C/Cc1c(O)cc(CCCCC)c(C(=O)O)c1O | 68.5% | 8.5 µM | > 50 µM | 5.2 µM | – | –
C=C(C)[C@@H](O)CC/C(C)=C/Cc1c(O)cc(CCCCC)c(C(=O)O)c1O | – | 15 µM | > 50 µM | 33 µM | – | 31%
C=C(C)C(O)CC/C(C)=C\Cc1c(O)cc(CCCCC)c(C(=O)O)c1O (stereo not drawn) | 100% | 6.9 µM | 13.9 µM | 4 µM | inactive | –
C=C(C)[C@H](CCC(C)=O)[C@@H]1c2c(cc(CCCCC)c(C(=O)O)c2O)O[C@H]1O | 91.5% | 6.6 µM | 17.9 µM | 23.9 µM | – | –
C=C(C)C(O)CC/C(C)=C/Cc1c(O)cc(CCCCC)cc1O (racemic) | 75.3% | 1 µM | 7.9 µM | 0.8 µM | inactive | –
